Data from ChEMBL document CHEMBL2375290, “Nonclassical antifolates, part 3: synthesis, biological evaluation and molecular modeling study of some new 2-heteroarylthio-quinazolin-4-ones” (Eur J Med Chem, 2013).

Key:
RXF 393 = assay: Cytotoxicity against human RXF393 cells at 10 uM after 48 hrs by coulter counter analysis; type: functional; conditions: RXF 393, 48 h, read-out: GI
SF-295 = assay: Cytotoxicity against human SF295 cells at 10 uM after 48 hrs by coulter counter analysis; type: functional; conditions: SF-295, 48 h, read-out: GI
Malme-3M = assay: Cytotoxicity against human MALME-3M cells at 10 uM after 48 hrs by coulter counter analysis; type: functional; conditions: read-out: GI
Micrococcus luteus = assay: Antimicrobial activity against Micrococcus luteus at 200 ug after 24 hrs by agar disc diffusion method; type: functional; conditions: read-out: DIZ
UO-31 = assay: Cytotoxicity against human UO31 cells at 10 uM after 48 hrs by coulter counter analysis; type: functional; conditions: UO-31, 48 h, read-out: GI
Hs-578T = assay: Cytotoxicity against human Hs578T cells at 10 uM after 48 hrs by coulter counter analysis; type: functional; conditions: read-out: GI
PC-3 = assay: Cytotoxicity against human PC3 cells at 10 uM after 48 hrs by coulter counter analysis; type: functional; conditions: PC-3, 48 h, read-out: GI
Bacillus subtilis = assay: Antimicrobial activity against Bacillus subtilis at 200 ug after 24 hrs by agar disc diffusion method; type: functional; conditions: read-out: DIZ
UACC-62 = assay: Cytotoxicity against human UACC62 cells at 10 uM after 48 hrs by coulter counter analysis; type: functional; conditions: UACC-62, 48 h, read-out: GI
SNB-75 = assay: Cytotoxicity against human SNB75 cells at 10 uM after 48 hrs by coulter counter analysis; type: functional; conditions: SNB-75, 48 h, read-out: GI
[1] = Cytotoxicity against human NCI-ADR-RES cells at 10 uM after 48 hrs by coulter counter analysis; type: functional; conditions: read-out: GI
Escherichia coli = assay: Antimicrobial activity against Escherichia coli at 200 ug after 24 hrs by agar disc diffusion method; type: functional; conditions: read-out: DIZ
[2] = Cytotoxicity against human EKVX cells at 10 uM after 48 hrs by coulter counter analysis; type: functional; conditions: read-out: GI
CAKI-1 = assay: Cytotoxicity against human Caki1 cells at 10 uM after 48 hrs by coulter counter analysis; type: functional; conditions: CAKI-1, 48 h, read-out: GI
IGROV-1 = assay: Cytotoxicity against human IGROV1 cells at 10 uM after 48 hrs by coulter counter analysis; type: functional; conditions: IGROV-1, 48 h, read-out: GI
A549 = assay: Cytotoxicity against human A549/ATCC cells at 10 uM after 48 hrs by coulter counter analysis; type: functional; conditions: A549, 48 h, read-out: GI
A498 = assay: Cytotoxicity against human A498 cells at 10 uM after 48 hrs by coulter counter analysis; type: functional; conditions: A498, 48 h, read-out: GI
RPMI-8226 = assay: Cytotoxicity against human RPMI8226 cells at 10 uM after 48 hrs by coulter counter analysis; type: functional; conditions: RPMI-8226, 48 h, read-out: GI
LOX IMVI = assay: Cytotoxicity against human LOXIMVI cells at 10 uM after 48 hrs by coulter counter analysis; type: functional; conditions: read-out: GI
NCI-H23 = assay: Cytotoxicity against human NCI-H23 cells at 10 uM after 48 hrs by coulter counter analysis; type: functional; conditions: NCI-H23, 48 h, read-out: GI
SN12C = assay: Cytotoxicity against human SN12C cells at 10 uM after 48 hrs by coulter counter analysis; type: functional; conditions: read-out: GI
CCRF-CEM = assay: Cytotoxicity against human CCRF-CEM cells at 10 uM after 48 hrs by coulter counter analysis; type: functional; conditions: read-out: GI
MOLT-4 = assay: Cytotoxicity against human MOLT4 cells at 10 uM after 48 hrs by coulter counter analysis; type: functional; conditions: MOLT-4, 48 h, read-out: GI
SNB-19 = assay: Cytotoxicity against human SNB19 cells at 10 uM after 48 hrs by coulter counter analysis; type: functional; conditions: SNB-19, 48 h, read-out: GI
NCI-H522 = assay: Cytotoxicity against human NCI-H522 cells at 10 uM after 48 hrs by coulter counter analysis; type: functional; conditions: NCI-H522, 48 h, read-out: GI
HL-60(TB) = assay: Cytotoxicity against human HL-60(TB) cells at 10 uM after 48 hrs by coulter counter analysis; type: functional; conditions: HL-60, 48 h, read-out: GI
T47D = assay: Cytotoxicity against human T47D cells at 10 uM after 48 hrs by coulter counter analysis; type: functional; conditions: read-out: GI
MDA-MB-231 = assay: Cytotoxicity against human MDA-MB-231 cells at 10 uM after 48 hrs by coulter counter analysis; type: functional; conditions: MDA-MB-231, 48 h, read-out: GI
Staphylococcus aureus = assay: Antimicrobial activity against Staphylococcus aureus at 200 ug after 24 hrs by agar disc diffusion method; type: functional; conditions: read-out: DIZ
MCF7 = assay: Cytotoxicity against human MCF7 cells at 10 uM after 48 hrs by coulter counter analysis; type: functional; conditions: MCF7, 48 h, read-out: GI
OVCAR-4 = assay: Cytotoxicity against human OVCAR4 cells at 10 uM after 48 hrs by coulter counter analysis; type: functional; conditions: OVCAR-4, 48 h, read-out: GI
Dihydrofolate reductase = target: T1, Dihydrofolate reductase (Bos taurus, UniProt P00376); assay: Inhibition of bovine DHFR after 2 mins by spectrophotometry
T1 sequence (P00376 whole entry): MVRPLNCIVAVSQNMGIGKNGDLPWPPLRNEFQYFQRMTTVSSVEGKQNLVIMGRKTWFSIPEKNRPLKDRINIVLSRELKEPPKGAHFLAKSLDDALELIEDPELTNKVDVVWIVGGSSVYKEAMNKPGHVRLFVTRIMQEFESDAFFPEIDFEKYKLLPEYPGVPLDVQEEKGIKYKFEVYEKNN

Pseudomonas aeruginosa = assay: Antimicrobial activity against Pseudomonas aeruginosa at 200 ug after 24 hrs by agar disc diffusion method; type: functional; conditions: read-out: DIZ
MDA-MB-435 = assay: Cytotoxicity against human MDA-MB-435 cells at 10 uM after 48 hrs by coulter counter analysis; type: functional; conditions: MDA-MB-435, 48 h, read-out: GI
SR = assay: Cytotoxicity against human SR cells at 10 uM after 48 hrs by coulter counter analysis; type: functional; conditions: read-out: GI
NCI-H226 = assay: Cytotoxicity against human NCI-H226 cells at 10 uM after 48 hrs by coulter counter analysis; type: functional; conditions: NCI-H226, 48 h, read-out: GI
SK-MEL-5 = assay: Cytotoxicity against human SK-MEL-5 cells at 10 uM after 48 hrs by coulter counter analysis; type: functional; conditions: SK-MEL-5, 48 h, read-out: GI

Row | Structure (SMILES) | inhibition of growth at 10 µM (RXF 393) | inhibition of growth at 10 µM (SF-295) | inhibition of growth at 10 µM (Malme-3M) | zone of inhibition at 200 µg/disc (Micrococcus luteus) | inhibition of growth at 10 µM (UO-31) | inhibition of growth at 10 µM (Hs-578T) | inhibition of growth at 10 µM (PC-3) | zone of inhibition at 200 µg/disc (Bacillus subtilis) | inhibition of growth at 10 µM (UACC-62) | inhibition of growth at 10 µM (SNB-75) | inhibition of growth at 10 µM [1] | zone of inhibition at 200 µg/disc (Escherichia coli) | inhibition of growth at 10 µM [2] | inhibition of growth at 10 µM (CAKI-1) | inhibition of growth at 10 µM (IGROV-1) | inhibition of growth at 10 µM (A549) | inhibition of growth at 10 µM (A498) | inhibition of growth at 10 µM (RPMI-8226) | inhibition of growth at 10 µM (LOX IMVI) | inhibition of growth at 10 µM (NCI-H23) | also measured
1 | Cc1ccc2nc(Sc3cnc(N)s3)n(-c3ccccc3)c(=O)c2c1 | < 10% | < 10% | < 10% | 8 mm | 20.7% | < 10% | 10.1% | 8 mm | < 10% | < 10% | < 10% | 8 mm | < 10% | 20.9% | 14.3% | < 10% | < 10% | < 10% | < 10% | < 10% | inhibition of growth at 10 µM (SN12C): < 10%; inhibition of growth at 10 µM (CCRF-CEM): < 10%; inhibition of growth at 10 µM (MOLT-4): < 10%; inhibition of growth at 10 µM (SNB-19): < 10%; inhibition of growth at 10 µM (NCI-H522): 13.8%; inhibition of growth at 10 µM (HL-60(TB)): < 10%; inhibition of growth at 10 µM (T47D): < 10%; inhibition of growth at 10 µM (MDA-MB-231): 18.1%; zone of inhibition at 200 µg/disc (Staphylococcus aureus): 8 mm; inhibition of growth at 10 µM (MCF7): < 10%; inhibition of growth at 10 µM (OVCAR-4): < 10%; IC50 (Dihydrofolate reductase): 0.8 µM; zone of inhibition at 200 µg/disc (Pseudomonas aeruginosa): 8 mm; inhibition of growth at 10 µM (MDA-MB-435): < 10%; inhibition of growth at 10 µM (SR): 37.8%; inhibition of growth at 10 µM (NCI-H226): 12.4%; inhibition of growth at 10 µM (SK-MEL-5): < 10%
2 | O=C(O)c1cccnc1Sc1nc2ccc(Cl)cc2c(=O)n1Cc1ccccc1 | < 10% | 15.7% | < 10% | 8 mm | 20.3% | < 10% | 25.2% | 18 mm | 16.7% | 18.4% | < 10% | 8 mm | 25.4% | 30.3% | 14.7% | < 10% | < 10% | 16.3% | 13.6% | < 10% | inhibition of growth at 10 µM (SN12C): < 10%; inhibition of growth at 10 µM (CCRF-CEM): 17.8%; inhibition of growth at 10 µM (MOLT-4): 16.7%; inhibition of growth at 10 µM (SNB-19): < 10%; inhibition of growth at 10 µM (NCI-H522): 13.1%; inhibition of growth at 10 µM (HL-60(TB)): < 10%; inhibition of growth at 10 µM (T47D): 14.1%; inhibition of growth at 10 µM (MDA-MB-231): 24.7%; zone of inhibition at 200 µg/disc (Staphylococcus aureus): 14 mm; inhibition of growth at 10 µM (MCF7): < 10%; inhibition of growth at 10 µM (OVCAR-4): 20.6%; IC50 (Dihydrofolate reductase): 10 µM; zone of inhibition at 200 µg/disc (Pseudomonas aeruginosa): 8 mm; inhibition of growth at 10 µM (MDA-MB-435): < 10%; inhibition of growth at 10 µM (SR): 32.8%; inhibition of growth at 10 µM (NCI-H226): 18.4%; inhibition of growth at 10 µM (SK-MEL-5): < 10%
3 | Cc1ccc2nc(Sc3ncccc3C(=O)O)n(Cc3ccccc3)c(=O)c2c1 | 21.5% | 14.2% | < 10% | 12 mm | 20.6% | 12.5% | 32.8% | 16 mm | 30.4% | 30% | 12.7% | 8 mm | 26.6% | 41.2% | 16.3% | < 10% | 11.4% | 25.8% | 13.8% | < 10% | inhibition of growth at 10 µM (SN12C): 11.2%; inhibition of growth at 10 µM (CCRF-CEM): 16.5%; inhibition of growth at 10 µM (MOLT-4): 15.3%; inhibition of growth at 10 µM (SNB-19): 14.2%; inhibition of growth at 10 µM (NCI-H522): 24.4%; inhibition of growth at 10 µM (HL-60(TB)): < 10%; inhibition of growth at 10 µM (T47D): < 10%; inhibition of growth at 10 µM (MDA-MB-231): 30.5%; zone of inhibition at 200 µg/disc (Staphylococcus aureus): 15 mm; inhibition of growth at 10 µM (MCF7): 16.6%; inhibition of growth at 10 µM (OVCAR-4): 16.2%; IC50 (Dihydrofolate reductase): 10 µM; zone of inhibition at 200 µg/disc (Pseudomonas aeruginosa): 8 mm; inhibition of growth at 10 µM (MDA-MB-435): 21.8%; inhibition of growth at 10 µM (SR): 14.4%; inhibition of growth at 10 µM (NCI-H226): 21.2%; inhibition of growth at 10 µM (SK-MEL-5): 14.4%
4 | O=C(O)c1cccnc1Sc1nc2ccc(Cl)cc2c(=O)n1-c1ccccc1 | < 10% | < 10% | < 10% | 8 mm | 20.5% | < 10% | < 10% | 16 mm | < 10% | < 10% | < 10% | 8 mm | < 10% | < 10% | < 10% | < 10% | < 10% | < 10% | < 10% | < 10% | inhibition of growth at 10 µM (SN12C): < 10%; inhibition of growth at 10 µM (CCRF-CEM): < 10%; inhibition of growth at 10 µM (MOLT-4): < 10%; inhibition of growth at 10 µM (SNB-19): < 10%; inhibition of growth at 10 µM (NCI-H522): < 10%; inhibition of growth at 10 µM (HL-60(TB)): < 10%; inhibition of growth at 10 µM (T47D): 15%; inhibition of growth at 10 µM (MDA-MB-231): 10.4%; zone of inhibition at 200 µg/disc (Staphylococcus aureus): 15 mm; inhibition of growth at 10 µM (MCF7): < 10%; inhibition of growth at 10 µM (OVCAR-4): < 10%; IC50 (Dihydrofolate reductase): 8 µM; zone of inhibition at 200 µg/disc (Pseudomonas aeruginosa): 8 mm; inhibition of growth at 10 µM (MDA-MB-435): < 10%; inhibition of growth at 10 µM (SR): < 10%; inhibition of growth at 10 µM (NCI-H226): 15.1%; inhibition of growth at 10 µM (SK-MEL-5): < 10%
